Series [1] in a line: HEK293 cytotoxicity assay (Alamar Blue). It counts as cell-based. The note with it: human, HEK293 cells, HEK293, 72 h. For orientation: The colour change of resazurin is a common sign of viable cells or microbes.
A further series is described as follows: Caco-2 cell permeability. In kind it is in vitro ADME. To be noted: human. How it is done: (§1) The culture medium consisted of high-glucose DMEM containing 10% of fetal bovine serum, 4 mM L-glutamine, 1% of a solution of nonessential amino acids (PanEco, Moscow, Russia), 100 U/mL penicillin, and 100 μg/mL streptomycin. The cells were maintained for 21 days at 37 °C and 5% CO2. The medium was refreshed every 3 days. A Lucifer yellow rejection assay was applied to determine cell monolayer integrity. […] The Lucifer yellow rejection value was calculated using the equation: LY % rejection = 100*(1−FIb/FIa), where FIb is the fluorescence in the basolateral compartment and FIa is the fluorescence in the apical compartment. […] Both apical-to-basolateral (AB) and basolateral-to-apical (BA) transport were assessed. For apical-to-basolateral transport, 0.3 mL of a test compound solution was added to the apical side, and 0.8 mL of HBSS with 0.5% of BSA was added to the basolateral side. For basolateral-to-apical transport, 0.8 mL of a test compound solution was added to the basolateral side and 0.3 mL of HBSS with 0.5% of BSA was added to the apical side. The Caco-2 cell monolayers were then incubated for 2 h at 37 °C. The pH values of the apical and basolateral compartments were 7.4. […] The supernatant was transferred to a vial and analyzed by liquid chromatography coupled with tandem MS (LC–MS/MS). The AB (or BA) apparent permeability coefficients (Papp, 10^–6 cm/s) were calculated according to the following formula [40, 41]: Papp = (V × ∆C)/(∆t × A × C0), where V is the volume of the receiver compartment (cm^3), C0 is the initial drug concentration in the donor compartment (μM), ∆C is the concentration in the receiver compartment (μM), ∆t is the incubation time (s), and A is the surface area of the cell monolayer (cm^2). An efflux ratio was calculated by dividing Papp (BA) by Papp (AB). All compounds were tested in duplicate.

In a further series the test system is Caco-2 cell monolayer. In words: Caco-2 cell permeability. In kind it is in vitro ADME. The note with it: Papp (BA) / Papp (AB); listed as lead compound. How it is done: as §1
Background: Passage across Caco-2 layers is used to estimate intestinal permeability.

Data on one compound can be found in paper PMC10671052, “Naphthyl-Substituted Indole and Pyrrole Carboxylic Acids as Effective Antibiotic Potentiators—Inhibitors of Bacterial Cystathionine γ-Lyase” (International Journal of Molecular Sciences, 2023).

For `O=C(O)c1cc2ccccc2n1Cc1cccc2ccccc12` [Compound 2a], the CC50 at 72 h in series [1] worked out at 291 ± 8.11 µM. Moreover, the efflux ratio at 2 h, 10 μM in the series “Caco-2 cell permeability” (Caco-2, Papp (BA) / Papp (AB)) stood at 1.13. In “Caco-2 cell permeability” (Caco-2, 10 μM, 2 h, pH 7.4), the Papp A→B at 2 h, 10 μM came out at 43.3 ± 2.8 ×10⁻⁶ cm/s and the Papp B→A at 2 h, 10 μM is 49.1 ± 6 ×10⁻⁶ cm/s. The Efflux ratio entry with Caco-2 cell monolayer was “less than 2.0”.

The CC50 is the concentration giving 50% cytotoxicity. A low value points to greater toxicity to the cells. What is called efflux ratio is the permeability from basolateral to apical divided by that in the opposite direction, in the common usage. In general, Papp A→B refers to how fast a substance crosses the layer from the apical side. High values mean ready permeation, low ones poor permeation. Usually Papp B→A stands for how fast a substance crosses the layer from the basolateral side.
